# According to patent publication US12331054B2, “Perk inhibiting imidazolopyrazine compounds” (HiberCell, Inc., priority 2019, dated 2025):
# Experiments:
# [1] = test system: eIF2α in HEK293-EGFP-eIF2α cells; test: PERK Cellular Assay (HEK293-EGFP-eIF2α cells, tunicamycin-induced ER stress, TR-FRET); assay type: cell-based; settings: tunicamycin 2 hours
# Procedure: Stable cell lines were created in HEK293 cells using lentiviral particles harboring an expression vector for GFP-eIF2α. Cells were selected using puromycin and enriched using fluorescence activated cell sorting against GFP. HEK293-EGFP-eIF2α cells were plated at 5000 cells/well in 384-well assay plates and incubated overnight at 37° C., 5% CO2. Inhibitor compounds were added to the wells by Echo acoustic dispensing and incubated for 30 minutes at 37° C., 5% CO2 prior to induction of ER stress by addition of tunicamycin to […] for 2 hours. Cells were lysed and TR-FRET was measured in an EnVision plate reader (PerkinElmer). FRET ratio data was normalized to signal from lysates treated with DMSO vehicle control and plotted as percent inhibition against 10-point; 3-fold dilution series of inhibitors. IC50 values were calculated using 4-parameter logistical fitting in XLFit.
# [2] = target: Recombinant human EIF2AK3 (PERK) catalytic domain (amino acids 536-1116) (Homo sapiens (Human), UniProt Q9NZJ5); test: PERK In Vitro Activity Assay (isolated), TR-FRET kinase assay; settings: isolated PERK enzyme, 1.5 μM ATP, read-out: Biochemical IC50
# From the text: PERK In Vitro Activity Assay (isolated):
# In vitro Inhibition of PERK Enzyme Activity (isolated) Recombinant human EIF2AK2 (PKR) catalytic domain (amino acids 252-551), EIF2AK3 (PERK) catalytic domain (amino acids 536-1116), GFP-eIF2a substrate, and Terbium-labelled phospho-eIF2a antibody is obtained (Invitrogen, Carlsbad, CA).
# Express and purify HIS-SUMO-GCN2 catalytic domain (amino acids 584-1019) from E. coli. Perform TR-FRET kinase assays in the absence or presence of inhibitors in a reaction buffer consisting of 50 mM HEPES, pH 7.5, 10 mM MgCb, 1.0 mM EGTA, and 0.01% Brij-35, and 100-200 nM GFP-eIF2a substrate. […] Add test compound, initiate the reaction by addition of enzyme, and incubate at room temperature for 45 minutes. Stop the reaction by addition of EDTA to a final concentration of 10 mM, add Terbium-labelled phospho-eIF2a antibody at a final concentration of 2 nM, and incubate for 90 minutes. Monitor the resulting fluorescence in an EnVison® Multilabel reader (PerkinElmer, Waltham, MA). Determine TR-FRET ratios and the resulting IC50 values using a 4-parameter nonlinear logistic equation as shown: Y=(A+((B−A)/(1+(C/x)AD)))) where, Y=% specific inhibition, A=Bottom of the curve, B=Top of the curve, C=absolute IC50 (concentration causing 50% inhibition), and D=hill slope.
# Chain of Recombinant human EIF2AK3 (PERK) catalytic domain (amino acids 536-1116) (Q9NZJ5 536-1116): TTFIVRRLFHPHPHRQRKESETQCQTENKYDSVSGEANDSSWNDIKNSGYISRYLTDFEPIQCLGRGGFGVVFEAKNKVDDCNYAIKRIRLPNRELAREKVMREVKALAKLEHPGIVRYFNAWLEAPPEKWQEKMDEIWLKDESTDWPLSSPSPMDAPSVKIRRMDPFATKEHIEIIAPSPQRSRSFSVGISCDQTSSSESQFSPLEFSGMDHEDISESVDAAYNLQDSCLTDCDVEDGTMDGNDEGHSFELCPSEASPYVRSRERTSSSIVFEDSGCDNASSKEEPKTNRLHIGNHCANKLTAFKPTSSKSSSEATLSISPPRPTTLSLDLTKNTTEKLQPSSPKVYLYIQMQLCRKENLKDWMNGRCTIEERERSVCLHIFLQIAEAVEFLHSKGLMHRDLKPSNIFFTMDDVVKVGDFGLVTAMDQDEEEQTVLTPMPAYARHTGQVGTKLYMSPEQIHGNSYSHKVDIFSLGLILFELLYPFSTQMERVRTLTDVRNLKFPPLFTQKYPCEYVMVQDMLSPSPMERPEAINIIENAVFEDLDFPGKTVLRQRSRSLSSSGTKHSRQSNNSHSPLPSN
SMILES,IC50 [1],IC50 [2]
"[2H]C([2H])([2H])c1nc(-c2ccc(NC(=O)C(O)c3cccc(F)c3)cc2F)c2c(N)ncc(Cl)n12 (centres unmarked) [Example 75, N-[4-[8-amino-5-chloro-3-(trideuteriomethyl)imidazo[1,5-a]pyrazin-1-yl]-3-fluoro-phenyl]-2-(3-fluorophenyl)-2-hydroxy-acetamide]",0.026 to 0.05 µM,0.001 to 0.025 µM
"[2H]C([2H])([2H])c1nc(-c2cnc(NC(=O)C(O)c3cccc(C(F)(F)F)c3)cc2C)c2c(N)nc(C)cn12 (centres unmarked) [Example 182, N-[5-[8-amino-6-methyl-3-(trideuteriomethyl)imidazo[1,5-a]pyrazin-1-yl]-4-methyl-2-pyridyl]-2-hydroxy-2-[3-(trifluoromethyl)phenyl]acetamide]",0.101 to 0.25 µM,0.001 to 0.025 µM
"Cc1c(-c2nc(C)n3c(C)cnc(N)c23)ccc(NC(=O)C(O)c2cccc(F)c2)c1F (centres unmarked) [Example 169, N-(4-(8-amino-3,5-dimethyl-imidazo[1,5-a]pyrazin-1-yl)-2-fluoro-3-methyl-phenyl)-2-(3-fluorophenyl)-2-hydroxy-acetamide]",0.001 to 0.025 µM,0.001 to 0.025 µM
"[2H]C([2H])([2H])c1nc(-c2ccc(NC(=O)C(O)c3cccc(F)c3)cc2C)c2c(N)ncc(Cl)n12 (centres unmarked) [Example 33, N-[4-[8-amino-5-chloro-3-(trideuteriomethyl)imidazo[1,5-a]pyrazin-1-yl]-3-methyl-phenyl]-2-(3-fluorophenyl)-2-hydroxy-acetamide]",0.051 to 0.1 µM,0.001 to 0.025 µM
"[2H]C([2H])([2H])c1nc(-c2ccc(NC(=O)C(O)c3cc(F)cc(F)c3)cc2F)c2c(N)ncc(C(F)(F)F)n12 (centres unmarked) [Example 107, N-[4-[8-amino-3-(trideuteriomethyl)-5-(trifluoromethyl)imidazo[1,5-a]pyrazin-1-yl]-3-fluoro-phenyl]-2-(3,5-difluoro-phenyl)-2-hydroxy-acetamide]",0.026 to 0.05 µM,0.001 to 0.025 µM
"[2H]C([2H])([2H])c1nc(-c2ccc(NC(=O)C(O)c3cc(F)cc(F)c3)cc2F)c2c(N)ncc(Cl)n12 (centres unmarked) [Example 109, N-[4-[8-amino-5-chloro-3-(trideuteriomethyl)imidazo[1,5-a]pyrazin-1-yl]-3-fluoro-phenyl]-2-(3,5-difluoro-phenyl)-2-hydroxy-acetamide]",0.001 to 0.025 µM,–
"[2H]C([2H])([2H])c1nc(-c2cnc(NC(=O)C(O)c3cccc(F)c3)cc2C)c2c(N)nc(C)cn12 (centres unmarked) [Example 179, N-[5-[8-amino-6-methyl-3-(trideuteriomethyl)imidazo[1,5-a]pyrazin-1-yl]-4-methyl-2-pyridyl]-2-(3-fluorophenyl)-2-hydroxy-acetamide]",0.251 to 0.5 µM,0.001 to 0.025 µM
"Cc1cc(NC(=O)C(O)c2cc(F)cc(C(F)(F)F)c2)ccc1-c1nc(C)n2c(C)cnc(N)c12 (centres unmarked) [Example 59, N-(4-(8-amino-3,5-dimethylimidazo [1,5-a]pyrazin-1-yl)-3-methylphenyl)-2-(3-fluoro-5-(trifluoromethyl)phenyl)-2-hydroxyacetamide]",0.101 to 0.25 µM,0.001 to 0.025 µM
"[2H]C([2H])([2H])c1nc(-c2ccc(NC(=O)C(O)c3cccc(F)c3)c(F)c2F)c2c(N)ncc(C)n12 (centres unmarked) [Example 133, N-[4-[8-amino-5-methyl-3-(trideuteriomethyl)imidazo[1,5-a]pyrazin-1-yl]-2,3-difluoro-phenyl]-2-(3-fluoro-phenyl)-2-hydroxy-acetamide]",0.101 to 0.25 µM,0.001 to 0.025 µM
"Cc1cnc(N)c2c(-c3ccc(NC(=O)C(O)c4cccc(F)c4)c(F)c3)nc(C)n12 (centres unmarked) [Example 125, N-(4-(8-amino-3,5-dimethyl-imidazo[1,5-a]pyrazin-1-yl)-2-fluorophenyl)-2-(3-fluorophenyl)-2-hydroxy-acetamide]",0.001 to 0.025 µM,0.001 to 0.025 µM
"Cc1cn2c(C)nc(-c3ccc(NC(=O)C(O)c4cccc(F)c4)c(F)c3)c2c(N)n1 (centres unmarked) [Example 119, N-(4-(8-amino-3,6-dimethyl-imidazo[1,5-a]pyrazin-1-yl)-2-fluorophenyl)-2-(3-fluorophenyl)-2-hydroxy-acetamide]",0.026 to 0.05 µM,–
"[2H]C([2H])([2H])c1nc(-c2ccc(NC(=O)C(O)c3cccc(F)c3)c(F)c2)c2c(N)nc(C)cn12 (centres unmarked) [Example 120, N-[4-[8-amino-6-methyl-3-(trideuteriomethyl)imidazo[1,5-a]pyrazin-1-yl]-2-fluorophenyl]-2-(3-fluorophenyl)-2-hydroxy-acetamide]",1 to 2 µM,–
"[2H]C([2H])([2H])c1nc(-c2ccc(NC(=O)C(O)c3cccc(F)c3)cc2C)c2c(N)ncc(C)n12 (centres unmarked) [Example 11, N-(4-(8-amino-5-methyl-3-(trideuteriomethyl)imidazo[1,5-a]pyrazin-1-yl)-3-methylphenyl)-2-(3-fluorophenyl)-2-hydroxyacetamide]",0.001 to 0.025 µM,–
"[2H]C([2H])([2H])c1nc(-c2ccc(NC(=O)C(O)c3cccc(C(F)(F)F)c3)cc2F)c2c(N)nc(C)cn12 (centres unmarked) [Example 97, N-[4-[8-amino-6-methyl-3-(trideuteriomethyl)imidazo[1,5-a]pyrazin-1-yl]-3-fluoro-phenyl]-2-hydroxy-2-[3-(trifluoromethyl)phenyl]acetamide]",0.251 to 0.5 µM,–
"Cc1cn2c(C)nc(-c3ccc(NC(=O)C(O)c4cccc(F)c4)c(F)c3)c2c(N)n1 (centres unmarked) [Example 118, N-(4-(8-amino-3,6-dimethyl-imidazo[1,5-a]pyrazin-1-yl)-2-fluorophenyl)-2-(3-fluorophenyl)-2-hydroxy-acetamide]",4 to 5 µM,–
"[2H]C([2H])([2H])c1nc(-c2ccc(NC(=O)C(O)c3cccc(C(F)(F)F)c3)cc2F)c2c(N)ncc(Cl)n12 (centres unmarked) [Example 101, N-[4-[8-amino-5-chloro-3-(trideuteriomethyl)imidazo[1,5-a]pyrazin-1-yl]-3-fluoro-phenyl]-2-hydroxy-2-[3-(trifluoromethyl)phenyl]acetamide]",0.001 to 0.025 µM,–
"Cc1cn2c(C3CC(C)(O)C3)nc(-c3ccc(NC(=O)C(O)c4cccc(F)c4)cc3C)c2c(N)n1 (centres unmarked) [Example 25, N-(4-(8-amino-3-(3-hydroxy-3-methylcyclobutyl)-6-methylimidazo [1,5-a]pyrazin-1-yl)-3-methyl-phenyl)-2-(3-fluorophenyl)-2-hydroxyacetamide]",1 to 2 µM,–
"[2H]C([2H])([2H])c1nc(-c2ccc(NC(=O)C(O)c3cccc(F)c3)c(F)c2)c2c(N)nc(C)cn12 (centres unmarked) [Example 121, N-[4-[8-amino-6-methyl-3-(trideuteriomethyl)imidazo[1,5-a]pyrazin-1-yl]-2-fluorophenyl]-2-(3-fluorophenyl)-2-hydroxy-acetamide]",0.051 to 0.1 µM,–
"Cc1cn2c(C3CC(C)(O)C3)nc(-c3ccc(NC(=O)C(O)c4cccc(F)c4)cc3C)c2c(N)n1 (centres unmarked) [Example 24, N-(4-(8-amino-3-(3-hydroxy-3-methylcyclobutyl)-6-methylimidazo [1,5-a]pyrazin-1-yl)-3-methyl-phenyl)-2-(3-fluorophenyl)-2-hydroxyacetamide]",0.101 to 0.25 µM,–
"[2H]C([2H])([2H])c1nc(-c2ccc(NC(=O)C(O)c3cccc(Cl)c3)cc2C)c2c(N)ncc(C(F)(F)F)n12 (centres unmarked) [Example 40, N-[4-[8-amino-3-(trideuteriomethyl)-5-(trifluoromethyl)imidazo[1,5-a]pyrazin-1-yl]-3-methyl-phenyl]-2-(3-chlorophenyl)-2-hydroxy-acetamide]",–,0.001 to 0.025 µM
"[2H]C([2H])([2H])c1nc(-c2ccc(NC(=O)C(O)c3cccc(F)c3)nc2C)c2c(N)ncc(C)n12 (centres unmarked) [Example 172, N-[5-[8-amino-5-methyl-3-(trideuteriomethyl)imidazo[1,5-a]pyrazin-1-yl]-6-methyl-2-pyridyl]-2-(3-fluorophenyl)-2-hydroxy-acetamide]",0.501 to 1 µM,–
"[2H]C([2H])([2H])c1nc(-c2ccc(NC(=O)C(O)c3cccc(Cl)c3)cc2F)c2c(N)ncc(Cl)n12 (centres unmarked) [Example 86, N-[4-[8-amino-5-chloro-3-(trideuteriomethyl)imidazo[1,5-a]pyrazin-1-yl]-3-fluoro-phenyl]-2-(3-chlorophenyl)-2-hydroxy-acetamide]",–,0.001 to 0.025 µM
"[2H]C([2H])([2H])c1nc(-c2ccc(NC(=O)C(O)c3cc(F)cc(F)c3)cc2C)c2c(N)ncc(Cl)n12 (centres unmarked) [Example 49, N-[4-[8-amino-5-chloro-3-(trideuteriomethyl)imidazo[1,5-a]pyrazin-1-yl]-3-methyl-phenyl]-2-(3,5-difluoro-phenyl)-2-hydroxy-acetamide]",0.001 to 0.025 µM,–
